Test results as given in ChEMBL document CHEMBL5042529, “One-Pot Enzymatic Synthesis and Biological Evaluation of Ganglioside GM3 Derivatives as Potential Cancer Immunotherapeutics” (J Med Chem, 2022).
Activity calls are given as the source filed them. The calls are words filed in the database; no cut-off is given here.

Columns and labels:
[1] = test system: Mus musculus; assay: Effect on IL-2 expression in BALB/c mouse transfected with mouse B16-Luc cells assessed as serum IL-2 level at 5 mg/kg, ip qd treated for 7 days by ELISA; assay type: functional, organism-based; conditions: time 7.0 day
[2] = Downregulation of XIAP gene expression in human A431 cells at 50 uM incubated for 24 hrs by RNA-seq analysis; assay type: functional; conditions: A-431
[3] = Downregulation of HSPG2 gene expression in human A431 cells at 50 uM incubated for 24 hrs by RNA-seq analysis; assay type: functional; conditions: A-431
[4] = Half life in C57BL/6 mouse 10 mg/kg, iv measured upto 24 hrs; assay type: ADME, organism-based; conditions: in vivo
[5] = Downregulation of LAMA5 gene expression in human A431 cells at 50 uM incubated for 24 hrs by qPCR analysis; assay type: functional; conditions: A-431
[6] = test system: B16; assay: Anticancer activity against mouse B16-Luc cells transfected in BALB/c mouse assessed as tumor inhibition rate at 5 mg/kg, ip qd treated for 7 days; assay type: functional; conditions: 168 h, time 7 day
[7] = Cytotoxicity against human A-431 cells measured after 24 hrs by MTT assay; assay type: toxicity, cell-based
[8] = Downregulation of VAVI gene expression in human A431 cells at 50 uM incubated for 24 hrs by qPCR analysis; assay type: functional; conditions: A-431
[9] = Downregulation of HSPG2 gene expression in human A431 cells at 50 uM incubated for 24 hrs by qPCR analysis; assay type: functional; conditions: A-431
[10] = test system: Mus musculus; assay: Effect on IL-2 expression in C57BL/6 mouse transfected with mouse B16-Luc cells assessed as serum IgG level at 5 mg/kg, ip qd treated for 7 days by ELISA; assay type: functional, organism-based; conditions: time 7.0 day
[11] = test system: B16; assay: Anticancer activity against mouse B16-Luc cells transfected in BALB/c mouse assessed as cell atypia in tumor tissue at 5 mg/kg, ip qd treated for 7 days by H and E staining based microscopy; assay type: functional, organism-based; conditions: time 7.0 day
[12] = Cytotoxicity against CHO cells measured after 24 hrs by MTT assay; assay type: toxicity, cell-based, Cricetulus griseus; conditions: Chinese hamster
[13] = Toxicity in C57BL/6 mouse transfected with mouse B16-Luc cells assessed as behavioral abnormalities at 5 mg/kg, sc qd treated for 7 days; assay type: organism-based; conditions: in vivo, 168 h, time 7 day
[14] = test system: B16; assay: Anticancer activity against mouse B16-Luc cells transfected in C57BL/6 mouse assessed as tumor inhibition rate at 5 mg/kg, ip qd treated for 7 days; assay type: functional; conditions: 168 h, time 7 day
[15] = test system: B16; assay: Anticancer activity against mouse B16-Luc cells transfected in BALB/c mouse assessed as cellular debris in tumor tissue at 5 mg/kg, ip qd treated for 7 days by H and E staining based microscopy; assay type: functional, organism-based; conditions: time 7.0 day
[16] = Downregulation of VAVI gene expression in human A431 cells at 50 uM incubated for 24 hrs by RNA-seq analysis; assay type: functional; conditions: A-431
[17] = test system: Mus musculus; assay: Effect on IgG expression in BALB/c mouse transfected with mouse B16-Luc cells assessed as serum IgG level at 5 mg/kg, ip qd treated for 7 days by ELISA; assay type: functional, organism-based; conditions: time 7.0 day
[18] = Downregulation of XIAP gene expression in human A431 cells at 50 uM incubated for 24 hrs by qPCR analysis; assay type: functional; conditions: A-431
[19] = Toxicity in BALB/c mouse transfected with mouse B16-Luc cells assessed as behavioral abnormalities at 5 mg/kg, sc qd treated for 7 days; assay type: organism-based; conditions: in vivo, 168 h, time 7 day
[20] = Clearance in C57BL/6 mouse at 10 mg/kg, iv measured upto 24 hrs; assay type: ADME, organism-based; conditions: in vivo
[21] = test system: B16; assay: Anticancer activity against mouse B16-Luc cells transfected in BALB/c mouse assessed as relative tumor weight at 5 mg/kg, ip qd treated for 7 days (reference value: 5.3 + /-1.4 g); assay type: functional; conditions: time 7 day
[22] = Cytotoxicity against mouse Neuro2a cells measured after 24 hrs by MTT assay; assay type: toxicity, cell-based, N2a
[23] = Cytotoxicity against rat PC-12 cells measured after 24 hrs by MTT assay; assay type: toxicity, cell-based
[24] = test system: B16; assay: Anticancer activity against mouse B16-Luc cells transfected in BALB/c mouse assessed as inflammatory cell infiltration in tumor tissue at 5 mg/kg, ip qd treated for 7 days by H and E staining based microscopy; assay type: functional, organism-based; conditions: time 7.0 day
[25] = test system: B16; assay: Anticancer activity against mouse B16-Luc cells transfected in C57BL/6 mouse assessed as relative tumor weight at 5 mg/kg, ip qd treated for 7 days (reference value: 8 + /- 4.1 g); assay type: functional; conditions: time 7 day
[26] = test system: B16; assay: Anticancer activity against mouse B16-Luc cells transfected in C57BL/6 mouse assessed as cellular debris in tumor tissue at 5 mg/kg, ip qd treated for 7 days by H and E staining based microscopy; assay type: functional, organism-based; conditions: time 7.0 day
[27] = test system: B16; assay: Anticancer activity against mouse B16-Luc cells transfected in C57BL/6 mouse assessed as inflammatory cell infiltration in tumor tissue at 5 mg/kg, ip qd treated for 7 days by H and E staining based microscopy; assay type: functional, organism-based; conditions: time 7.0 day
[28] = test system: Mus musculus; assay: Effect on IL-2 expression in C57BL/6 mouse transfected with mouse B16-Luc cells assessed as serum IL-2 level at 5 mg/kg, ip qd treated for 7 days by ELISA; assay type: functional, organism-based; conditions: time 7.0 day
[29] = test system: B16; assay: Anticancer activity against mouse B16-Luc cells transfected in BALB/c mouse assessed as nuclear pyknosis in tumor tissue at 5 mg/kg, ip qd treated for 7 days by H and E staining based microscopy; assay type: functional, organism-based; conditions: time 7.0 day
[30] = test system: B16; assay: Anticancer activity against mouse B16-Luc cells transfected in C57BL/6 mouse assessed as increase in tumor necrotic area at 5 mg/kg, ip qd treated for 7 days by H and E staining based microscopy relative to control; assay type: functional, organism-based; conditions: time 7.0 day
[31] = Cytotoxicity against human HeLa cells measured after 24 hrs by MTT assay; assay type: toxicity, cell-based
[32] = Downregulation of LAMA5 gene expression in human A431 cells at 50 uM incubated for 24 hrs by RNA-seq analysis; assay type: functional; conditions: A-431
[33] = test system: B16; assay: Anticancer activity against mouse B16-Luc cells transfected in C57BL/6 mouse assessed as nuclear pyknosis in tumor tissue at 5 mg/kg, ip qd treated for 7 days by H and E staining based microscopy; assay type: functional, organism-based; conditions: time 7.0 day
[34] = test system: B16; assay: Anticancer activity against mouse B16-Luc cells transfected in C57BL/6 mouse assessed as cell atypia in tumor tissue at 5 mg/kg, ip qd treated for 7 days by H and E staining based microscopy; assay type: functional, organism-based; conditions: time 7.0 day
[35] = test system: A-431; assay: Antimigratory activity in human A-431 cells assessed as inhibition of scratch at 50 uM measured after 24 hrs by Wound healing assay; assay type: functional; parameters: scale not given: the % may be the effect or the level left
[36] = test system: A-431; assay: Inhibition of cell invasion in human A-431 cells assessed as inhibition rate at 50 uM incubated for 24 hrs by crystal violet staining based transwell assay; assay type: functional
[37] = test system: B16; assay: Anticancer activity against mouse B16-Luc cells transfected in BALB/c mouse assessed as increase in tumor necrotic area at 5 mg/kg, ip qd treated for 7 days by H and E staining based microscopy relative to control; assay type: functional, organism-based; conditions: time 7.0 day
[38] = test system: Mus musculus; assay: Effect on IL-2 expression in C57BL/6 mouse transfected with mouse B16-Luc cells assessed as serum […] level at 5 mg/kg, ip qd treated for 7 days by ELISA; assay type: functional, organism-based; conditions: time 7.0 day
[39] = test system: Mus musculus; assay: Increase in IL-12 expression in C57BL/6 mouse transfected with mouse B16-Luc cells assessed as […] at 5 mg/kg, ip qd treated for 7 days by ELISA; assay type: functional, organism-based; conditions: time 7.0 day
[40] = Apparent volume of distribution in C57BL/6 mouse at 10 mg/kg, iv measured upto 24 hrs; assay type: ADME, organism-based; conditions: in vivo
[41] = test system: Mus musculus; assay: Increase in IL-12 expression in BALB/c mouse transfected with mouse B16-Luc cells assessed as […] at 5 mg/kg, ip qd treated for 7 days by ELISA; assay type: functional, organism-based; conditions: time 7.0 day
[42] = Reduction of VAVI expression in human A431 cells at 50 uM incubated for 24 hrs by Western blotting analysis; assay type: functional; conditions: A-431
[43] = Reduction of integrin beta1 expression in human A431 cells at 50 uM incubated for 24 hrs by Western blotting analysis; assay type: functional; conditions: A-431

For `CCCCCCCCCCCCC/C=C/[C@@H](O)[C@H](CO[C@@H]1O[C@H](CO)[C@@H](O[C@@H]2O[C@H](CO)[C@H](O)[C@H](O[C@]3(C(=O)O)C[C@H](O)[C@@H](NC(=O)c4cccc(I)c4)[C@H]([C@H](O)[C@H](O)CO)O3)[C@H]2O)[C@H](O)[C@H]1O)NC(=O)CCCCCCCCCCCCCCCCC`, the Activity [1] was “inactive”, the inhibition at 50 µM [2] was 52.5% and the inhibition at 50 µM [3] was 55.2%. For the same compound, the half-life [4] was 56.8 h, the inhibition at 50 µM [5] was 54.1% and the inhibition in vivo at 5 mg/kg [6] was 29.2%. For the same compound, the IC50 at 24 h [7] was > 200 µM, the inhibition at 50 µM [8] was 93.4% and the inhibition at 50 µM [9] was 33.4%. The Activity [10] was “inactive”, the Activity [11] was “Active” and the IC50 at 24 h [12] was > 200 µM. The Activity [13] was “Non-Toxic”, the inhibition in vivo at 5 mg/kg [14] was 46.2% and the Activity [15] was “Active”. For the same compound, the inhibition at 50 µM [16] was 100%, the Activity [17] was “inactive” and the inhibition at 50 µM [18] was 46.2%. For the same compound, the Activity [19] was “Non-Toxic”, the CL [20] was 0.483 µL/min/mg and the Activity [21] was 5.3 g. For the same compound, the IC50 at 24 h [22] was > 200 µM, the IC50 at 24 h [23] was > 200 µM and the Activity [24] was “Active”. For the same compound, the Activity [25] was 4.3 g, the Activity [26] was “Active” and the Activity [27] was “Active”. The Activity [28] was “inactive”, the Activity [29] was “Active” and the Activity [30] was “Active”. The IC50 at 24 h [31] was > 200 µM, the inhibition at 50 µM [32] was 50.8% and the Activity [33] was “Active”. The Activity [34] was “Active”, the Activity [35] was 46.7% and the inhibition at 50 µM [36] was 36.6%. The Activity [37] was “Active”, the Activity [38] was “inactive” and the Activity [39] was “inactive”. For the same compound, the Vd [40] was 2.4 mL/mg, the Activity [41] was “inactive” and the inhibition at 50 µM [42] was 14.5%. It also gave an inhibition at 50 µM [43] of 14.7%.
